The values below come from PubChem BioAssay (NCI).

Among the test systems are EKVX NSCLC; SF-268 CNS; SK-MEL-28 melanoma; RPMI-8226 leukemia; ACHN renal; UACC-62 melanoma; LOX IMVI melanoma; SK-MEL-5 melanoma.
Holding throughout (experiment): inhibition of tumour cell growth, NCI panel, 48 h

Several values for one entry are separate records, joined by “and”; a condition that tells them apart may be missing. Identical values can stand only once.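 Results reflect a 48-hour exposure of cells in 96-well plates to compound at five concentrations. GI50 = concentration required for 50% inhibition of growth. TGI is the concentration that stops growth completely.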

Take `CS(=O)(=O)CCNCc1ccc(-c2ccc3ncnc(Nc4ccc(OCc5ccccc5)c(Br)c4)c3c2)o1`: the GI50 in the test on EKVX NSCLC was 0.526 µM; in the test on SF-268 CNS, 10.7 µM; with SK-MEL-28 melanoma it was 4.5 µM; in the test with RPMI-8226 leukemia, 8670 nM; with ACHN renal, 1.13 µM; in the test on UACC-62 melanoma, 5030 nM. Besides, the figures for the GI50 with LOX IMVI melanoma and in the test with SK-MEL-5 melanoma were 4360 nM and 3.44 µM, respectively. Besides, the TGI was over 25 µM in the test with EKVX NSCLC; over 25 µM in the test on SF-268 CNS; 9.08 µM with SK-MEL-28 melanoma; over 24.1 µM in the test with RPMI-8226 leukemia; over 25 µM in the test with ACHN renal; 9.75 µM in the test with UACC-62 melanoma. In addition, the figures for the TGI with LOX IMVI melanoma and with SK-MEL-5 melanoma were 8.69 µM and 6.71 µM, respectively.
For the compound `CNC/C(Cl)=N/S(=O)(=O)c1ccc(C)cc1`, the TGI with EKVX NSCLC is 40.4 µM; with SF-268 CNS, over 100 µM; in the test with SK-MEL-28 melanoma, over 100 µM; in the test with RPMI-8226 leukemia, 33.5 µM; with ACHN renal, 35.8 µM; in the test with UACC-62 melanoma, 21.9 µM. The figures for the TGI with LOX IMVI melanoma and with SK-MEL-5 melanoma were 27.3 µM and 36.7 µM, respectively.
Consider `Cc1cc(=O)oc2c(C)c(O)ccc12`, for which the TGI in the test on EKVX NSCLC, in the test with SF-268 CNS, with SK-MEL-28 melanoma, with RPMI-8226 leukemia, in the test with ACHN renal and in the test with UACC-62 melanoma was over 100 µM each time. Further, the TGI in the test on LOX IMVI melanoma and with SK-MEL-5 melanoma was over 100 µM each time.
In the case of `COc1cccc(/C=C/[N+](=O)[O-])c1`, the GI50 was 19 µM in the test on EKVX NSCLC; 5.64 µM with SF-268 CNS; 2.39 µM in the test on SK-MEL-28 melanoma; 1780 nM in the test with RPMI-8226 leukemia; 2.49 µM with ACHN renal; 3290 nM with UACC-62 melanoma. In addition, the results for the GI50 in the test with LOX IMVI melanoma and in the test with SK-MEL-5 melanoma were 1660 nM and 10.5 µM, respectively. The TGI in the test with EKVX NSCLC was 76.2 µM; in the test with SF-268 CNS, 21.4 µM; with SK-MEL-28 melanoma it was 6.28 µM; in the test on RPMI-8226 leukemia, 4.54 µM; with ACHN renal, 6.06 µM; with UACC-62 melanoma, 12.8 µM. The TGI in the test with LOX IMVI melanoma came out at 3.12 µM; with SK-MEL-5 melanoma it was 22.5 µM.
On to `Cc1ccc(Cc2cnc(NC(=O)/C=C/c3cccc(C)c3)s2)cc1`, for which the GI50 with EKVX NSCLC was 0.403 µM; with SF-268 CNS, 1.85 µM; with SK-MEL-28 melanoma, 1.35 µM; in the test with RPMI-8226 leukemia, 175 nM; in the test with ACHN renal, 0.278 µM; with UACC-62 melanoma, 64.5 nM. The values for the GI50 in the test with LOX IMVI melanoma and with SK-MEL-5 melanoma were 124 nM and 0.404 µM, respectively. Besides, the TGI with EKVX NSCLC was over 100 µM; with SF-268 CNS it was over 100 µM; with SK-MEL-28 melanoma, over 100 µM; with RPMI-8226 leukemia, 10.5 µM; with ACHN renal, 4.66 µM; with UACC-62 melanoma, 25.3 µM. Further, the figures for the TGI with LOX IMVI melanoma and with SK-MEL-5 melanoma were 7.4 µM and over 100 µM, respectively.
For `Cc1cc(O)cc2c1[C@]1(C)CCC3C(C)(C)CCC[C@]3(C)[C@H]1C2` (some centres not stated), the GI50 was 19.9 µM with EKVX NSCLC; 21 µM with SF-268 CNS; 20.4 µM with SK-MEL-28 melanoma; 29600 nM with RPMI-8226 leukemia; 19.1 µM in the test on ACHN renal; 18600 nM in the test with UACC-62 melanoma. Moreover, the values for the GI50 in the test on LOX IMVI melanoma and with SK-MEL-5 melanoma were 19500 nM and 19.1 µM, respectively. The TGI with EKVX NSCLC came to 36.6 µM; in the test on SF-268 CNS, 39.4 µM; in the test with SK-MEL-28 melanoma, 36.7 µM; in the test with RPMI-8226 leukemia, 74.7 µM; in the test on ACHN renal, 33.3 µM; in the test with UACC-62 melanoma, 33.2 µM. Moreover, the TGI was 35.8 µM in the test on LOX IMVI melanoma and 33.2 µM in the test with SK-MEL-5 melanoma.
Regarding `C=C(CN1CCN(c2cccc(C(F)(F)F)n2)CC1)c1ccc(C(=O)Nc2ccccc2N)cc1`, the GI50 was 24.3 µM and 2.73 µM with EKVX NSCLC; 1.13 µM and 0.578 µM in the test with SF-268 CNS; 2.08 µM and 0.422 µM in the test with SK-MEL-28 melanoma; 534 nM and 277 nM in the test on RPMI-8226 leukemia; 970 nM and 510 nM with UACC-62 melanoma; 1500 nM and 496 nM in the test with LOX IMVI melanoma. In addition, the GI50 in the test with SK-MEL-5 melanoma is 0.403 µM and 0.397 µM. In addition, the TGI in the test on EKVX NSCLC was over 100 µM; in the test on SF-268 CNS, 31.2 µM and > 100 µM; with SK-MEL-28 melanoma it was > 100 µM and 15.5 µM; in the test with RPMI-8226 leukemia it was 4.19 µM and 1.33 µM; in the test on ACHN renal it was over 100 µM; in the test with UACC-62 melanoma, over 100 µM. The compound further returned a TGI in the test with LOX IMVI melanoma of over 100 µM.
In the case of `COc1cc2c(cc1OC)-c1ccc3cc4c(cc3c1N(CCCn1ccnc1)C2)OCO4`, the GI50 in the test with EKVX NSCLC is 31.9 µM; with SF-268 CNS it was 0.514 µM; in the test with SK-MEL-28 melanoma, 3.74 µM; with RPMI-8226 leukemia, 1310 nM; in the test with ACHN renal, 10.1 µM; in the test on UACC-62 melanoma, 670 nM. The GI50 in the test on LOX IMVI melanoma is 1620 nM; with SK-MEL-5 melanoma, 2.22 µM. For the same compound, the TGI in the test with EKVX NSCLC was over 100 µM; with SF-268 CNS, 53.4 µM; with SK-MEL-28 melanoma it was 17.7 µM; in the test with RPMI-8226 leukemia, 5.62 µM; with ACHN renal, 65.9 µM; in the test with UACC-62 melanoma it was 2.72 µM. In addition, the TGI was found to be 4.7 µM in the test with LOX IMVI melanoma and 10.2 µM with SK-MEL-5 melanoma.
As to `CCC(=O)Nc1ccccc1C#C/C=C\C#Cc1ccccc1SC`, the GI50 in the test on EKVX NSCLC is 7.11 µM; with SF-268 CNS it was 12.3 µM; in the test on SK-MEL-28 melanoma, 8.75 µM; in the test on RPMI-8226 leukemia it was 1260 nM; with ACHN renal it was 30.1 µM; in the test with UACC-62 melanoma, 4040 nM. For the same compound, the GI50 was 5470 nM in the test with LOX IMVI melanoma and 3.91 µM in the test with SK-MEL-5 melanoma. Moreover, the TGI with EKVX NSCLC was 78.5 µM; with SF-268 CNS, over 100 µM; in the test on SK-MEL-28 melanoma, over 100 µM; in the test with RPMI-8226 leukemia, 11.7 µM; with ACHN renal, over 100 µM; in the test on UACC-62 melanoma, over 100 µM. The TGI is over 100 µM in the test with LOX IMVI melanoma and 17.4 µM with SK-MEL-5 melanoma.
On to `CCN(Cc1ccccc1)c1ccc(CO)c(Cl)c1`, for which the GI50 is 20.1 µM in the test on EKVX NSCLC; 26.7 µM in the test on SF-268 CNS; 29.2 µM in the test with SK-MEL-28 melanoma; 5530 nM with RPMI-8226 leukemia; 30.2 µM with ACHN renal; 104 nM in the test with UACC-62 melanoma. Besides, the GI50 is 23800 nM with LOX IMVI melanoma and 5.83 µM in the test on SK-MEL-5 melanoma. Moreover, the TGI in the test with EKVX NSCLC was 74.5 µM; in the test with SF-268 CNS it was over 70.6 µM; in the test on SK-MEL-28 melanoma it was over 100 µM; with RPMI-8226 leukemia, 44.7 µM; in the test on ACHN renal, over 100 µM; in the test on UACC-62 melanoma, 0.695 µM. For the same compound, the TGI in the test with LOX IMVI melanoma is over 100 µM; in the test with SK-MEL-5 melanoma it was 28.7 µM.
